pIC50: −log10 of the molar value.
Columns and labels:
Format in all cases: functional, cell-based
MDA-MB-231 = assay: Cytotoxicity against human MDA-MB-231 cells assessed as cell viability by MTT assay
MCF7 = assay: Cytotoxicity against human MCF7 cells assessed as cell viability by MTT assay
HeLa = assay: Cytotoxicity against human HeLa cells assessed as cell viability by MTT assay
A549 = assay: Cytotoxicity against human A549 cells assessed as cell viability by MTT assay

Row | Compound | pIC50 (MDA-MB-231) | pIC50 (MCF7) | pIC50 (HeLa) | pIC50 (A549)
1 | O=C1C[C@H](c2ccccc2)Oc2cc(O)c([C@H](/C=C/C[C@@H](O)CCc3ccccc3)c3ccccc3)c(O)c21 | 5.46 | 4.90 | 5.80 | 5.25
2 | O=C1C[C@@H](c2ccccc2)Oc2cc(O)c([C@@H](/C=C/C[C@@H](O)CCc3ccccc3)c3ccccc3)c(O)c21 | 5.83 | 5.38 | 6.17 | 5.49

— ChEMBL document CHEMBL5505987 (Eur J Med Chem, 2024)
